Eleven compounds from patent publication US10526327B2, “Histone demethylase inhibitors” (CELGENE QUANTICEL RESEARCH, INC., priority 2013, dated 2020) can be followed below.

SMILES strings stand for the structures.

In this experiment the target is T1, Jarid1B (Homo sapiens, UniProt Q9UGL1).
T1 construct: purchased BPS Bioscience or custom made by MolecularThroughput 50121
T1 sequence (Q9UGL1 2-751): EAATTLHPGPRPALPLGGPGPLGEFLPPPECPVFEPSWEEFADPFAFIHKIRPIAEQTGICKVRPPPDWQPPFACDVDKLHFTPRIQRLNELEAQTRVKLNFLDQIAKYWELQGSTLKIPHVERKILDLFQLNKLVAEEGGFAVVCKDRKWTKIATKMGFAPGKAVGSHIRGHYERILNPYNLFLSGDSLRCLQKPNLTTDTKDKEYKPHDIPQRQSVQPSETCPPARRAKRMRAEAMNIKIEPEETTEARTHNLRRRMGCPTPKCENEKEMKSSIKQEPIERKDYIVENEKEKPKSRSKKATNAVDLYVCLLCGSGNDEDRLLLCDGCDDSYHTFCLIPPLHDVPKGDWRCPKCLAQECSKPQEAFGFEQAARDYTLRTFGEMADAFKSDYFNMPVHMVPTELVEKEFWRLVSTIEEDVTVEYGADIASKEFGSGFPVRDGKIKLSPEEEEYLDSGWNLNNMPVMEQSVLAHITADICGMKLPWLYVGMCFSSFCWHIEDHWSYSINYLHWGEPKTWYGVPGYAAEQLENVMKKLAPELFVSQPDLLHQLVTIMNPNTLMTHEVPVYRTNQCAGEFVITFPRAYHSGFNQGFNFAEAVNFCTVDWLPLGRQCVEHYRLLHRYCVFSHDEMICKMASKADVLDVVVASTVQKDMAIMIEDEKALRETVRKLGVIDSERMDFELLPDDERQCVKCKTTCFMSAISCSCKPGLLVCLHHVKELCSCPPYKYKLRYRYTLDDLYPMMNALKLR
As to the kind of experiment: Jarid1B in vitro enzyme inhibition assay (TR-FRET). Format: biochemical. An excerpt:
This assay determines the ability of a test compound to inhibit Jarid1A, Jarid1B, and JMJD2C demethylase activity. Baculovirus expressed Jarid1A (GenBank Accession #NM_001042603, AA1-1090) was purchased from BPS Bioscience (Cat#50110). Baculovirus expressed Jarid1B (GenBank Accession #NM_006618, AA 2-751) was purchased from BPS Bioscience (Cat #50121) or custom made by MolecularThroughput. Baculovirus expressed JMJD2C (GenBank Accession #BC143571, AA 2-372) was purchased from BPS Bioscience (Cat#50105).
The ability of test compounds to inhibit the activity of Jarid1B was determined in 384-well plate format under the following reaction conditions: 0.8 nM Jarid1B, 300 nM H3K4me3-biotin labeled peptide (Anaspec cat #64357), 2 μM alpha-ketoglutaric acid in assay buffer of 50 mM HEPES, pH7.3, 0.005% Brij35, 0.5 mM TCEP, 0.2 mg/ml BSA, 50 μM sodium L-ascorbate, and 2 μM ammonium iron(II) sulfate. Reaction product was determined quantitatively by TR-FRET after the addition of detection reagent Phycolink Streptavidin-allophycocyanin (Prozyme) and Europium-anti-mono-or di-methylated histone H3 lysine 4 (H3K4me1-2) antibody (PerkinElmer) in the presence of 5 mM EDTA in LANCE detection buffer (PerkinElmer) at a final concentration of 25 nM and 1 nM, respectively.
The assay reaction was initiated by the following: 2 μl of the mixture of 900 nM H3K4me3-biotin labeled peptide and 6 μM alpha-ketoglutaric acid with 2 μl of 11-point serial diluted inhibitor in 3% DMSO was added to each well of the plate, followed by the addition of 2 μl of 2.4 nM Jarid1B to initiate the reaction. The reaction mixture was incubated at room temperature for 30 minutes, and terminated by the addition of 6 μl of 5 mM EDTA in LANCE detection buffer containing 50 nM Phycolink Streptavidin-allophycocyanin and 2 nM Europium-anti-H3K4me1-2 antibody. Plates were read by EnVisionMultilabel Reader in TR-FRET mode (excitation at 320 nm, emission at 615 nm and 665 nm) after 1 hour incubation at room temperature. A ratio was calculated (665/615) for each well and fitted to determine inhibition constant (IC50).
Background: TR-FRET usually uses a lanthanide donor and a delayed reading to cut background.
The compound `Oc1nc(OC2CCCC2)nc2cnccc12` [Example 6, 2-cyclopentyloxy-3H-pyrido[3,4-d]pyrimidin-4-one] came in with an IC50 of 100 to 1000 nM. Then `CN(C)c1cccc(Oc2nc(O)c3ccncc3n2)c1` [Example 50, 2-[3-(dimethylamino)phenoxy]pyrido[3,4-d]pyrimidin-4-ol], with no more than 100 nM. The result for `Oc1nc(OCc2ccccc2)nc2cnccc12` [Example 4, 2-phenylmethoxypyrido[3,4-d]pyrimidin-4-ol] reads 100 to 1000 nM. Then `Oc1nc(Oc2cnn(Cc3ccccc3F)c2)nc2cnccc12` [Example 87, 2-[1-(2-fluorobenzyl)pyrazol-4-yl]oxypyrido[3,4-d]pyrimidin-4-ol], with no more than 100 nM. In the case of `Cn1cnc(-c2nccc3c(O)nc(Oc4cnn(Cc5ccccc5)c4)nc23)c1` [Example 79, 2-(1-benzylpyrazol-4-yl)oxy-8-(1-methylimidazol-4-yl)pyrido[3,4-d]pyrimidin-4-ol], the IC50 is no more than 100 nM. In the case of `CC(c1ccccc1)n1cc(Oc2nc(O)c3ccncc3n2)cn1` (centres unmarked) [Example 99], the IC50 is no more than 100 nM. Then `CC(C)CCn1cc(Oc2nc(O)c3ccncc3n2)cn1` [Example 55, 2-{[1-(3-methylbutyl)pyrazol-4-yl]oxy}pyrido[3,4-d]pyrimidin-4-ol], with no more than 100 nM; and `Oc1nc(OCCOc2ccccc2)nc2cnccc12` [Example 10, 2-(2-phenoxyethoxy)-3H-pyrido[3,4-d]pyrimidin-4-one], with 100 to 1000 nM; and `Oc1nc(Oc2cnn(C3CCCC3)c2)nc2cnccc12` [Example 56, 2-[(1-cyclopentylpyrazol-4-yl)oxy]pyrido[3,4-d]pyrimidin-4-ol], with no more than 100 nM. Then `Oc1nc(Oc2ccccc2F)nc2cnccc12` [Example 46, 2-(2-fluorophenoxy)pyrido[3,4-d]pyrimidin-4-ol], with 100 to 1000 nM. `Oc1nc(Oc2cnn(Cc3ccccc3)c2)nc2cnccc12` [Example 66, 2-[(1-benzyl-1H-pyrazol-4-yl)oxy]pyrido[3,4-d]pyrimidin-4-ol] returned an IC50 of no more than 100 nM.

Usually IC50 stands for the concentration needed to halve the response being measured.
